From patent publication US20180110762A1, “Compositions Methods for Treating Chronic Kidney Disease” (Merck Sharp & Dohme Corp, priority 2015, published 2018)

Legend:
[1] = biological target: T1, Human recombinant integrin αvβ1 (Homo sapiens, UniProt P05556+P06756); assay: Solid phase receptor assay, αvβ1 (fibronectin); format: binding
T1 construct: purchased R&D Systems
Procedure: (§1) The assay was performed according to the method described in International Patent Publication WO 2014/015054 A1 “Beta Amino Acid Derivatives As Integrin Antagonists.” Briefly, 96-well plates were coated overnight with purified fibronectin or vitronectin (R&D Systems) in TBS+ buffer (25 mM Tris 7.4, 137 mM NaCl, 2.7 mM KCl, 1 mM CaCl2, 1 mM MgCl2, 1 mM MnCl2). Compound A was added at different concentrations to recombinant human integrin proteins (R&D Systems) reconstituted in TBS+/0.1% bovine serum albumin, and 50 μL of this mixture were added to the empty wells of the coated plate and incubated for 1-2 hours. After 3 washes, 50 μL of biotinylated antibody (R&D Systems) in TBS+/0.1% bovine serum albumin were added. The procedure continued with three more washes, addition of 50 μL of streptavidin-conjugated horseradish peroxidase (R&D Systems), and incubation for 20 minutes. After 3 more washes, 50 μL of tetramethylbenzidine (TMB) substrate (SIGMA) were added and plates were read after 20 min by colorimetric detection at 650 nm wavelength in an EnVision Multilabel Plate Reader (Perkin Elmer). The concentrations of fibronectin used were: 2 μg/mL for the α5β1 assay and 5 μg/mL for the αvβ1 assay. The concentrations of vitronectin used were: 1 μg/mL for the αvβ3 assay and 0.25 μg/mL for the αvβ5 assay. […]

[2] = tested on: male obese ZSF1 rats (diabetic nephropathy model); assay: ZSF1 rat study: renal fibrosis score (histology); format: in vivo; settings: for renal fibrosis score (expressed as 0-5): obese ZSF1 rats, week 28
Procedure: (§2) The effects of Compound A (“A”) on renal function, plasma triglycerides, plasma cholesterol, kidney collagen I, kidney collagen III, renal histology, glomerular filtration rate, fibrosis score, and mRNA gene expression (profibrotic genes and integrin β3) were evaluated in male obese ZSF1 rats (a hybrid F1 of Zucker diabetic fatty rat and spontaneously hypertensive heart failure rat; a diabetic nephropathy model) when administered as in-feed for 28 weeks. Sixty obese male ZSF1 rats were randomized to five groups: Obese control (n=12), Compound A 60 mpk (n=12), Compound A 200 mpk (n=12), Compound A 400 mpk (n=12), Enalapril 10 mpk (n=12); Eight lean male ZSF1 rats were used for normal control. Renal functional changes were monitored by blood and urine analysis following in-feed dosing for 28 weeks. Compound exposure was also monitored during the study.
Upon completion of the study, animals were euthanized and blood and organs (kidney, heart, aorta, eyes, and lumber vertebrae (LV1-LV5) and left femur) were collected for histology assessment (including EM for the kidneys) or DEXA scan (lumber vertebrae and left femur). Kidney tissues were fixed in 10% formalin and then paraffin embedded. Tissue sections were stained with hematoxylin and eosin (H&E), periodic acid-Schiff (PAS), and Masson's trichrome and evaluated under light microscope. The severity of histopathologic changes in renal tubules, interstitium, vasculature, and glomeruli were graded on a 1 to 5 scale corresponding to minimal, mild, moderate, marked, and severe as described previously. Sections from both kidneys were examined. Collagen deposition in the kidney was graded on a 1 to 5 scale corresponding to minimal, mild, moderate, marked, and severe, based on the blue stained area size and intensity.

[3] = biological target: T1, Human recombinant integrin αvβ1; assay: Thermal shift assay (differential scanning fluorimetry), αvβ1; format: binding; settings: αvβ1, 20 μM Compound A
Procedure: (§3) Differential scanning fluorimetry was performed on a LightCycler 480 II, real-time PCR instrument (Roche Diagnostics). Human recombinant integrins from R&D Systems (αvβ1, αvβ3 and α5β1) were reconstituted at a concentration of […] in assay buffer (20 mM HEPES, pH=7.3, 100 mM NaCl, 1 mM MgCl2, 1 mM MnCl2) and diluted in assay buffer with Sypro orange (SIGMA) to a final concentration of 400 nM integrin and 5× Sypro orange. A volume of 4.9 μL of this mixture of protein and dye was transferred to a 384-well plate and 100 nL of DMSO or Compound A, dissolved in DMSO, were added using an Echo 555 instrument (Labcyte). The final concentration of Compound A in the assay was 20 μM. After mixing, the assay plate was sealed, spun at 1,000×g for two minutes, and subsequently heated from 25 to 99° C. over the course of 31 min in the LightCycler 480 II instrument. Fluorescence intensity was measured using excitation/emission wavelengths of 465 and 580 nm, respectively. Changes in protein thermal stability (ΔTm) upon compound binding were analyzed by using LightCycler 480 (software provided by the manufacturer).

[4] = biological target: T2, Human recombinant integrin α5β1 (Homo sapiens, UniProt P05556+P08648); assay: Solid phase receptor assay, α5β1 (fibronectin); format: binding
T2 construct: purchased R&D Systems
T2 sequence (P08648 42-995 limits assumed): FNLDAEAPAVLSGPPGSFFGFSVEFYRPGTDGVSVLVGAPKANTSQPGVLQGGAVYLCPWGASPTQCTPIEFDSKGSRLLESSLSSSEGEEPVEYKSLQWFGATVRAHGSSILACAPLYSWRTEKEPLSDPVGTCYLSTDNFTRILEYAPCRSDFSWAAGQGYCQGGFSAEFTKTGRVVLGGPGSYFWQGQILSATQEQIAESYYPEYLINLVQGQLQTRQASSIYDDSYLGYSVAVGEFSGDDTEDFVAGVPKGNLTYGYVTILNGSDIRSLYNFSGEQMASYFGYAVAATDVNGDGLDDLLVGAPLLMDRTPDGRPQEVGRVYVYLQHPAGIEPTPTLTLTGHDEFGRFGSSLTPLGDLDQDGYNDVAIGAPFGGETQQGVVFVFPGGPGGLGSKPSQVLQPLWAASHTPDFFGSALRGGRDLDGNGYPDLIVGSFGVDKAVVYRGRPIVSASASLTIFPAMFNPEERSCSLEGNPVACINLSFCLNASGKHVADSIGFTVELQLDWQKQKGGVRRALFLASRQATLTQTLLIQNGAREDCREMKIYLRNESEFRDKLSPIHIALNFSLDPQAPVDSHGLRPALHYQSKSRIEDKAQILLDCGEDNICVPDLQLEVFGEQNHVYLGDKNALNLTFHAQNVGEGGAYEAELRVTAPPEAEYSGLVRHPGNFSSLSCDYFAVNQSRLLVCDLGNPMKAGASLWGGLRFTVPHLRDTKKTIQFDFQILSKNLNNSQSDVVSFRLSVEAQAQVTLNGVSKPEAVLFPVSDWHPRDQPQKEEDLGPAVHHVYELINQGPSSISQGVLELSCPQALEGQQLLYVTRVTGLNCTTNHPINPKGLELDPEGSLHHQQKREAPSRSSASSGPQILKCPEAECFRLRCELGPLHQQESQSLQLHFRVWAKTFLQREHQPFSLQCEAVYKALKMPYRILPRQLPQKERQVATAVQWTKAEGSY
T2 sequence (P05556 21-728 limits assumed): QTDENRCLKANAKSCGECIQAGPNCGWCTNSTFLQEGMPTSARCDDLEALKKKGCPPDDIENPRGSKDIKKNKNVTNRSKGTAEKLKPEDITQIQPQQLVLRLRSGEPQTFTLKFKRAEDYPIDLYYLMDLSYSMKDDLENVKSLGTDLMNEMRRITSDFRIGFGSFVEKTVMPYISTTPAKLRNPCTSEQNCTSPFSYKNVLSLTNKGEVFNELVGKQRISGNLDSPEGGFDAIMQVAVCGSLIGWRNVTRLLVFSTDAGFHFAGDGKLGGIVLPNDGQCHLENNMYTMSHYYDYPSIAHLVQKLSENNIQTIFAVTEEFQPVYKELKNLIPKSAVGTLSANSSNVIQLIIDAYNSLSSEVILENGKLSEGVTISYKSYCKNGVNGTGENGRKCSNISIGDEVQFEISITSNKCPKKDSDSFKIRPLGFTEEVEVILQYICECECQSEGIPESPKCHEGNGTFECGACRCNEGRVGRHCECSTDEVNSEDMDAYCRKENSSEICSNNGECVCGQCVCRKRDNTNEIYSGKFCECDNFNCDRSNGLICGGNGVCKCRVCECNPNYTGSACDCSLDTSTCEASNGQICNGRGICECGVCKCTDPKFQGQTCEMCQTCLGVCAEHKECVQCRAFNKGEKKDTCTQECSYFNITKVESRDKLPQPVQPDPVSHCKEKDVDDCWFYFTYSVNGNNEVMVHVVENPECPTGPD
Procedure: as §1

[5] = biological target: T3, Human recombinant integrin αvβ3 (Homo sapiens, UniProt P05106+P06756); assay: Thermal shift assay (differential scanning fluorimetry), αvβ3; format: binding; settings: αvβ3, 20 μM Compound A
T3 construct: purchased R&D Systems
T3 sequence (P06756 31-992 limits assumed): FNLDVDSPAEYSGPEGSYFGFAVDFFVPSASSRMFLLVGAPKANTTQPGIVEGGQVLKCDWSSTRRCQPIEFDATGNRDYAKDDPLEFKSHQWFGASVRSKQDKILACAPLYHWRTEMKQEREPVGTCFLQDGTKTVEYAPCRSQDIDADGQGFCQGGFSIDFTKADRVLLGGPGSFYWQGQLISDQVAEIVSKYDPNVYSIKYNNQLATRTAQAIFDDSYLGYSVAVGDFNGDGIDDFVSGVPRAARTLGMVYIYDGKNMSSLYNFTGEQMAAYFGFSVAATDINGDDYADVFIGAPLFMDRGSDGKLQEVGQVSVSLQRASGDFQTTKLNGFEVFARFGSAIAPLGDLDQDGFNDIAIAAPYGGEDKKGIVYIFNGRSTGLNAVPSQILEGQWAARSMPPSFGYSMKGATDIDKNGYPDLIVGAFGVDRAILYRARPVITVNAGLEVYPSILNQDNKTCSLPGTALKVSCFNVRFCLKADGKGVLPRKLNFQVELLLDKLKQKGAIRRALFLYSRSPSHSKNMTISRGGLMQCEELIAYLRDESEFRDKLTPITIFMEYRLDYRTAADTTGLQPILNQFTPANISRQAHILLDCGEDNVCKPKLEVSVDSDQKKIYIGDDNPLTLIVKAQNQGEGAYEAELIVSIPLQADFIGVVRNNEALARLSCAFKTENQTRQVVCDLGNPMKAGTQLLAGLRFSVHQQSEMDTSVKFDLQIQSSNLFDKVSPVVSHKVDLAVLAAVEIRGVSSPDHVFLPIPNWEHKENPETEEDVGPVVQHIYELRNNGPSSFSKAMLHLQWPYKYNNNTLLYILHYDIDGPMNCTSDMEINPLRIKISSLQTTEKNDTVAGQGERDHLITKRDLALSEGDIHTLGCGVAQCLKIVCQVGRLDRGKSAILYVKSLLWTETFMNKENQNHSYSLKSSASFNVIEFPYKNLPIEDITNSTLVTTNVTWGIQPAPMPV
T3 sequence (P05106 27-718 limits assumed): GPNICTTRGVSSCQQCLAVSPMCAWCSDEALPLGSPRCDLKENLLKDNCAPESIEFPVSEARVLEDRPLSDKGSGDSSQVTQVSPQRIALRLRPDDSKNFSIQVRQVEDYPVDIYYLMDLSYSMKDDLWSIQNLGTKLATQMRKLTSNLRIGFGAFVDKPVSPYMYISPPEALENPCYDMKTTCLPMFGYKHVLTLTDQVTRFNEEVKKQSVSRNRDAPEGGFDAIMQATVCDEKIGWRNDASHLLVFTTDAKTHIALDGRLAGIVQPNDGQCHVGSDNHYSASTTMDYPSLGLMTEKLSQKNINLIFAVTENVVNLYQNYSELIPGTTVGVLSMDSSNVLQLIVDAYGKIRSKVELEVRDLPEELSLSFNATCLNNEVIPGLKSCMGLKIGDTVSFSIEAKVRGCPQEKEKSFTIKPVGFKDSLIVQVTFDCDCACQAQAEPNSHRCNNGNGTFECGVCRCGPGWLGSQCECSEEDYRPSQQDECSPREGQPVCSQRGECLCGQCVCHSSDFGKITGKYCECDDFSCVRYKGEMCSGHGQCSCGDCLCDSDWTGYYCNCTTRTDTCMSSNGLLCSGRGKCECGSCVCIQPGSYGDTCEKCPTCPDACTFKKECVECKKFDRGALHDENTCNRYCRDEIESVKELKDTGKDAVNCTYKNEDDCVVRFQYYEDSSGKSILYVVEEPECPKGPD
Procedure: as §3

[6] = tested on: male obese ZSF1 rats (diabetic nephropathy model); assay: ZSF1 rat study: kidney collagen I and III immunostaining; format: in vivo
Procedure: as §2
Following deparaffinization and rehydration, each kidney tissue section was processed to identify collagen I and III deposition. The primary antibodies used were rabbit anti-type I collagen polyclonal antibody (Abcam, Cambridge, Mass.) diluted at 2 ug/ml, and rabbit anti-type III collagen polyclonal antibody (Lifespan, Seattle, Wash.) at 3 ug/ml. The signal was developed by using Super PicTure HRP Polymer Rabbit Primary kit (Invitrogen) and the slides were counterstained with hematoxylin. The Aperio ScanScope XT Slide Scanner (Aperio Technologies, Vista, Calif.) system was used to capture whole slide digital images with a 20× objective. Digital images were managed using Aperio Spectrum. The positive stains were identified and quantified using a macro created from a color deconvolution algorithm (Aperio Technologies, Vista, Calif.).

[7] = obese ZSF1 rats, 400 mpk in-feed, week 28

T1 sequence (P06756 31-992 limits assumed): as the sequence (P06756 31-992 limits assumed) above
T1 sequence (P05556 21-728 limits assumed): as the sequence (P05556 21-728 limits assumed) above

In the case of `COc1ccc([C@H](CC(=O)O)N2CCN(CCCc3ccc4c(n3)NCCC4)C2=O)cn1` [Compound A, 3-{2-Oxo-3-[3-(5,6,7,8-tetrahydro-[1,8]naphthyridin-2-yl)-propyl]imidazolidin-1-yl}-3 (S)-(6-methoxy-pyridin-3-yl)-propionic acid], the IC50 ([1]; αvβ1, first of two experiments) is reported as 2.1 nM, the IC50 ([1]; αvβ1, second of two experiments) is reported as 0.9 nM and the “effect on renal fibrosis score vs Obese Vehicle” value ([2]; 400 mpk at week 28) is reported as “significantly decreased”. For the same compound, the “markers of renal fibrosis” value ([2]; ZSF-1 rats vs untreated obese ZSF-1 rats (summary)) was “improvement in markers of renal fibrosis”, the “renal fibrosis score (expressed as 0-5)” value ([2]; 200 mpk in-feed) was 2.7 ± 0.1 and the “renal fibrosis score (expressed as 0-5)” value ([2]; 400 mpk in-feed) was 2.2 ± 0.1. For the same compound, the ΔTm at 20 µM ([3]; first of two experiments) was 19.4 °C, the ΔTm at 20 µM ([3]; second of two experiments) was 15.6 °C and the IC50 ([4]; α5β1, first of two experiments) was 4.9 nM. For the same compound, the IC50 ([4]; α5β1, second of two experiments) was 19.6 nM, the ΔTm at 20 µM ([5]; first of two experiments) was 21.5 °C and the ΔTm at 20 µM ([5]; second of two experiments) was 16.4 °C. The “effect on kidney collagen I protein levels vs Obese Vehicle” value ([6]; 400 mpk at week 28) was “significantly decreased”, the “effect on kidney collagen III protein levels vs Obese Vehicle” value ([6]; 400 mpk at week 28) was “significantly decreased” and the “kidney collagen I protein levels” value ([6]; obese ZSF1 rats, 200 mpk in-feed, week 28) was 39.79 ± 0.82 % of area. For the same compound, the “kidney collagen I protein levels” value [6, 7] was 36.45 ± 0.85 % of area and the “kidney collagen III protein levels” value [6, 7] was 19.23 ± 0.76 % of area.
